# Test results from PubChem BioAssay (NCI).
#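 Step 1: Grow cells in 96-well plates. Step 2: Expose to compound for 48 hours at 5 concentrations. Step 3: Interpolate endpoints linearly; if unreached, use highest concentration. At the TGI there is no net growth.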
# Tests used:
# Test in all cases: NCI anticancer screen, dose series, 48 h
# 786-0 renal = system: 786-0 renal
# A498 renal = system: A498 renal
# A549 NSCLC = system: A549 NSCLC
# ACHN renal = system: ACHN renal
# BT-549 breast = system: BT-549 breast
# COLO 205 colon = system: COLO 205 colon
# DU-145 prostate = system: DU-145 prostate
# HCC-2998 colon = system: HCC-2998 colon
# HCT-116 colon = system: HCT-116 colon
# HCT-15 colon = system: HCT-15 colon
# HL-60(TB) leukemia = system: HL-60(TB) leukemia
# HOP-62 NSCLC = system: HOP-62 NSCLC
# HOP-92 NSCLC = system: HOP-92 NSCLC
# HS 578T breast = system: HS 578T breast
# HT29 colon = system: HT29 colon
# IGROV1 ovarian = system: IGROV1 ovarian
# K-562 leukemia = system: K-562 leukemia
# KM12 colon = system: KM12 colon
# LOX IMVI melanoma = system: LOX IMVI melanoma
# M14 melanoma = system: M14 melanoma
# MALME-3M melanoma = system: MALME-3M melanoma
# MCF7 breast = system: MCF7 breast
# MDA-MB-231 breast = system: MDA-MB-231 breast
# MDA-N = system: MDA-N
# MOLT-4 leukemia = system: MOLT-4 leukemia
# NCI-H226 lung = system: NCI-H226 lung
# NCI-H23 lung = system: NCI-H23 lung
# NCI-H460 lung = system: NCI-H460 lung
# NCI-H522 lung = system: NCI-H522 lung
# NCI/ADR-RES ovarian = system: NCI/ADR-RES ovarian
# OVCAR-3 ovarian = system: OVCAR-3 ovarian
# OVCAR-4 ovarian = system: OVCAR-4 ovarian
# OVCAR-5 ovarian = system: OVCAR-5 ovarian
# PC-3 prostate = system: PC-3 prostate
# RPMI-8226 leukemia = system: RPMI-8226 leukemia
# RXF 393 renal = system: RXF 393 renal
# SF-268 CNS = system: SF-268 CNS
# SF-295 CNS = system: SF-295 CNS
# SF-539 CNS = system: SF-539 CNS
# SK-MEL-2 melanoma = system: SK-MEL-2 melanoma
# SK-MEL-28 melanoma = system: SK-MEL-28 melanoma
# SK-MEL-5 melanoma = system: SK-MEL-5 melanoma
# SK-OV-3 ovarian = system: SK-OV-3 ovarian
# SN12C renal = system: SN12C renal
# SNB-19 CNS = system: SNB-19 CNS
# SNB-75 CNS = system: SNB-75 CNS
# SR leukemia = system: SR leukemia
# SW-620 colon = system: SW-620 colon
# T-47D breast = system: T-47D breast
# TK-10 renal = system: TK-10 renal
# U251 CNS = system: U251 CNS
# UACC-257 melanoma = system: UACC-257 melanoma
# UACC-62 melanoma = system: UACC-62 melanoma
# UO-31 renal = system: UO-31 renal
# CAKI-1 renal = system: CAKI-1 renal
# CCRF-CEM leukemia = system: CCRF-CEM leukemia
# EKVX NSCLC = system: EKVX NSCLC
# MDA-MB-435 = system: MDA-MB-435
# OVCAR-8 ovarian = system: OVCAR-8 ovarian
structure (smiles),measurement,setting,value
COc1ccc2c(c1)N=C(N)n1c(nc3ccccc31)S2,TGI,786-0 renal,4.39 µM
same,TGI,A498 renal,80.6 µM
same,TGI,A549 NSCLC,> 100 µM
same,TGI,ACHN renal,> 100 µM
same,TGI,BT-549 breast,> 100 µM
same,TGI,COLO 205 colon,26.1 µM
same,TGI,DU-145 prostate,> 100 µM
same,TGI,HCC-2998 colon,> 100 µM
same,TGI,HCT-116 colon,15.8 µM
same,TGI,HCT-15 colon,> 100 µM
same,TGI,HL-60(TB) leukemia,> 100 µM
same,TGI,HOP-62 NSCLC,> 100 µM
same,TGI,HOP-92 NSCLC,53.2 µM
same,TGI,HS 578T breast,> 100 µM
same,TGI,HT29 colon,15.9 µM
same,TGI,IGROV1 ovarian,> 100 µM
same,TGI,K-562 leukemia,> 100 µM
same,TGI,KM12 colon,36.2 µM
same,TGI,LOX IMVI melanoma,> 100 µM
same,TGI,M14 melanoma,15.6 µM
same,TGI,MALME-3M melanoma,> 100 µM
same,TGI,MCF7 breast,> 100 µM
same,TGI,MDA-MB-231 breast,32.3 µM
same,TGI,MDA-N,16 µM
same,TGI,MOLT-4 leukemia,> 100 µM
same,TGI,NCI-H226 lung,> 100 µM
same,TGI,NCI-H23 lung,26.2 µM
same,TGI,NCI-H460 lung,> 100 µM
same,TGI,NCI-H522 lung,25.9 µM
same,TGI,NCI/ADR-RES ovarian,86.7 µM
same,TGI,OVCAR-3 ovarian,90.4 µM
same,TGI,OVCAR-4 ovarian,38.9 µM
same,TGI,OVCAR-5 ovarian,23.9 µM
same,TGI,PC-3 prostate,69.1 µM
same,TGI,RPMI-8226 leukemia,> 100 µM
same,TGI,RXF 393 renal,70.5 µM
same,TGI,SF-268 CNS,> 100 µM
same,TGI,SF-295 CNS,> 100 µM
same,TGI,SF-539 CNS,> 100 µM
same,TGI,SK-MEL-2 melanoma,28.1 µM
same,TGI,SK-MEL-28 melanoma,> 100 µM
same,TGI,SK-MEL-5 melanoma,20.8 µM
same,TGI,SK-OV-3 ovarian,95.4 µM
same,TGI,SN12C renal,> 100 µM
same,TGI,SNB-19 CNS,> 100 µM
same,TGI,SNB-75 CNS,> 100 µM
same,TGI,SR leukemia,> 100 µM
same,TGI,SW-620 colon,> 100 µM
same,TGI,T-47D breast,76.7 µM
same,TGI,TK-10 renal,> 100 µM
same,TGI,U251 CNS,29.4 µM
same,TGI,UACC-257 melanoma,38.1 µM
same,TGI,UACC-62 melanoma,76.7 µM
same,TGI,UO-31 renal,38.4 µM
CCN(CC)CCNC(=O)c1cc2cc(NC(=O)c3cc4cc(N)ccc4[nH]3)ccc2[nH]1,TGI,786-0 renal,> 100 µM
same,TGI,A498 renal,> 100 µM
same,TGI,A549 NSCLC,> 100 µM
same,TGI,ACHN renal,> 100 µM
same,TGI,BT-549 breast,> 100 µM
same,TGI,CAKI-1 renal,> 100 µM
same,TGI,CCRF-CEM leukemia,38.9 µM
same,TGI,COLO 205 colon,25.6 µM
same,TGI,DU-145 prostate,47.1 µM
same,TGI,EKVX NSCLC,> 100 µM
same,TGI,HCC-2998 colon,36.3 µM
same,TGI,HCT-116 colon,79.7 µM
same,TGI,HCT-15 colon,> 100 µM
same,TGI,HOP-62 NSCLC,> 100 µM
same,TGI,HOP-92 NSCLC,> 100 µM
same,TGI,HS 578T breast,> 100 µM
same,TGI,HT29 colon,> 100 µM
same,TGI,K-562 leukemia,> 100 µM
same,TGI,KM12 colon,28 µM
same,TGI,M14 melanoma,77.1 µM
same,TGI,MCF7 breast,36.8 µM
same,TGI,MDA-MB-231 breast,73.4 µM
same,TGI,MDA-MB-435,58 µM
same,TGI,MDA-N,> 100 µM
same,TGI,MOLT-4 leukemia,48.5 µM
same,TGI,NCI-H23 lung,> 100 µM
same,TGI,NCI-H460 lung,> 100 µM
same,TGI,NCI-H522 lung,46.7 µM
same,TGI,NCI/ADR-RES ovarian,> 100 µM
same,TGI,OVCAR-4 ovarian,27.7 µM
same,TGI,OVCAR-5 ovarian,> 100 µM
same,TGI,OVCAR-8 ovarian,> 100 µM
same,TGI,RPMI-8226 leukemia,74.5 µM
same,TGI,RXF 393 renal,61.3 µM
same,TGI,SF-268 CNS,> 100 µM
same,TGI,SF-295 CNS,> 100 µM
same,TGI,SF-539 CNS,85.3 µM
same,TGI,SK-MEL-2 melanoma,> 100 µM
same,TGI,SK-MEL-28 melanoma,> 100 µM
same,TGI,SK-OV-3 ovarian,> 100 µM
same,TGI,SN12C renal,> 100 µM
same,TGI,SNB-19 CNS,> 100 µM
same,TGI,SR leukemia,55 µM
same,TGI,SW-620 colon,> 100 µM
same,TGI,T-47D breast,> 100 µM
same,TGI,TK-10 renal,> 100 µM
same,TGI,U251 CNS,> 100 µM
same,TGI,UACC-257 melanoma,> 100 µM
same,TGI,UACC-62 melanoma,59.3 µM
same,TGI,UO-31 renal,> 100 µM
COc1cc(COC(=O)N2CSCC2C(=O)O)c([N+](=O)[O-])cc1OC (configuration not stated),TGI,786-0 renal,> 100 µM
same,TGI,A549 NSCLC,> 100 µM
same,TGI,ACHN renal,> 100 µM
same,TGI,BT-549 breast,> 100 µM
same,TGI,CCRF-CEM leukemia,> 100 µM
same,TGI,DU-145 prostate,> 100 µM
same,TGI,EKVX NSCLC,> 100 µM
same,TGI,HCC-2998 colon,> 100 µM
same,TGI,HCT-116 colon,> 100 µM
same,TGI,HCT-15 colon,> 100 µM
same,TGI,HL-60(TB) leukemia,> 100 µM
same,TGI,HOP-62 NSCLC,> 100 µM
same,TGI,HOP-92 NSCLC,> 100 µM
same,TGI,HS 578T breast,> 100 µM
same,TGI,HT29 colon,> 100 µM
same,TGI,IGROV1 ovarian,> 100 µM
same,TGI,K-562 leukemia,> 100 µM
same,TGI,KM12 colon,> 100 µM
same,TGI,M14 melanoma,> 100 µM
same,TGI,MALME-3M melanoma,> 100 µM
same,TGI,MCF7 breast,> 100 µM
same,TGI,MDA-MB-435,> 100 µM
same,TGI,MDA-N,> 100 µM
same,TGI,MOLT-4 leukemia,> 100 µM
same,TGI,NCI-H226 lung,> 100 µM
same,TGI,NCI-H23 lung,> 100 µM
same,TGI,NCI-H460 lung,> 100 µM
same,TGI,NCI/ADR-RES ovarian,> 100 µM
same,TGI,OVCAR-3 ovarian,> 100 µM
same,TGI,OVCAR-5 ovarian,> 100 µM
same,TGI,OVCAR-8 ovarian,> 100 µM
same,TGI,PC-3 prostate,> 100 µM
same,TGI,RPMI-8226 leukemia,> 100 µM
same,TGI,SF-268 CNS,> 100 µM
same,TGI,SF-295 CNS,> 100 µM
same,TGI,SF-539 CNS,> 100 µM
same,TGI,SK-MEL-5 melanoma,> 100 µM
same,TGI,SK-OV-3 ovarian,> 100 µM
same,TGI,SN12C renal,> 100 µM
same,TGI,SNB-19 CNS,> 100 µM
same,TGI,SNB-75 CNS,> 100 µM
same,TGI,SR leukemia,> 100 µM
same,TGI,SW-620 colon,> 100 µM
same,TGI,T-47D breast,> 100 µM
same,TGI,U251 CNS,> 100 µM
same,TGI,UACC-257 melanoma,> 100 µM
same,TGI,UACC-62 melanoma,> 100 µM
same,TGI,UO-31 renal,> 100 µM
